According to a compilation of properties of binary mixtures (doi:10.1007/s10953-023-01258-3):

Test: xn = mol fraction of the nth substance listed
Settings: 101 kPa, x2 = 0

CS(C)=O + Cn1cc[n+](CCCN)c1.F[B-](F)(F)F
Settings	viscosity [mPa·s]
288.15 K	2.605
293.15 K	2.318
298.15 K	2.089
303.15 K	1.886
308.15 K	1.717
313.15 K	1.575
318.15 K	1.447
323.15 K	1.341
333.15 K	1.164
338.15 K	1.097
343.15 K	1.034
348.15 K	0.981
353.15 K	0.934
